From publication PMC11822212, “High-throughput screening identifies Aurora kinase B as a critical therapeutic target for Merkel cell carcinoma” (Nature Communications, 2025) come the findings set out here.

Assay [1] relates to MCC13 cells (VN-MCC). Briefly: qHTS cell viability (CellTiter-Glo, 72 h; primary and follow-up small molecule screen). In kind it is cell-based, human. (In general: Quantitative high-throughput screening tests each substance at several concentrations.)
The subject of assay [2] is HACAT cells. In words: qHTS cell viability (CellTiter-Glo, 72 h; primary screen), control cell line. In kind it is cell-based, human.
In assay [3] the test system is VN-MCC cell lines (MCC13, MCC26, UISO). In words: qHTS cell viability, VN-MCC cell lines as a group (mean AUC, VN.MCC.avg). The assay is classed as cell-based, human. The following applies: for VN-MCC_Avg_AUC: mean AUC of VN-MCC cell lines.
The test system of assay [4] is HEK293T cells. Briefly: qHTS cell viability (CellTiter-Glo, 72 h; primary screen), control cell line. In kind it is cell-based, human.
Assay [5] relates to six MCC cell lines and four control cell lines. Briefly: qHTS cell viability, all 10 cell lines screened. The assay is classed as cell-based.
For assay [6], the system named is MCC cell lines (WAGA, MKL-1, MKL-2, MCC13, MCC26, UISO). Briefly: qHTS cell viability, all six MCC cell lines as a group (mean AUC, MCC.avg). The assay is classed as cell-based, human. Particulars: mean AUC of six MCC cell lines.
The subject of assay [7] is UISO cells (VN-MCC). Briefly: qHTS cell viability (CellTiter-Glo, 72 h; primary and follow-up small molecule screen). In kind it is cell-based, human.
Assay [8] relates to NIH-3T3 cells. Briefly: qHTS cell viability (CellTiter-Glo, 72 h; primary screen), control cell line. The assay is classed as cell-based, mouse.
Assay [9] deals with control cell lines (HACAT, HEK293T, CRL-7250, NIH-3T3). In words: qHTS cell viability, control cell lines as a group (mean AUC, Control.avg). The assay is classed as cell-based. Particulars: mean AUC of control cell lines.
The test system of assay [10] is WAGA cells (VP-MCC). In words: qHTS cell viability (CellTiter-Glo, 72 h; primary and follow-up small molecule screen). In kind it is cell-based, human.
Assay [11] has as its system MKL-1 cells (VP-MCC). The assay is described as above. The assay is classed as cell-based, human.
Assay [12] deals with VP-MCC cell lines (WAGA, MKL-1, MKL-2). Briefly: qHTS cell viability, VP-MCC cell lines as a group (mean AUC, VP.MCC.avg). The assay is classed as cell-based, human. Particulars: for VP-MCC_Avg_AUC: mean AUC of VP-MCC cell lines.
Assay [13] concerns MCC26 cells (VN-MCC). In words: qHTS cell viability (CellTiter-Glo, 72 h; primary and follow-up small molecule screen). In kind it is cell-based, human.
Assay [14] deals with MKL-2 cells (VP-MCC). The description is as above. In kind it is cell-based, human.
In assay [15] the test system is CRL-7250 cells. Briefly: qHTS cell viability (CellTiter-Glo, 72 h; primary screen), control cell line. In kind it is cell-based.
Setting [16] is: MIPE library, 11-point DRC, sheet S2E.
Setting [17] is: MIPE library, 11-point DRC, control cell line, sheet S2E.

SMILES strings stand for the structures.

`CC1=C(/C=C/C(C)=C/C=C/C(C)=C\C(=O)O)C(C)(C)CCC1` [Isotretinoin]: the MCC13_AUC is listed as 457.493 in assay [1] (setting [16]) and 457.493 in assay [1] (area under the dose-response curve, MCC13 cells, AUC<450 = reduced viability). Besides, the HACAT_AUC worked out at 476.199 in assay [2] (setting [17]) and 476.199 in assay [2] (area under the dose-response curve, HACAT control cells, AUC<450 = reduced viability). The compound further showed a Control-VN-MCC in assay [3] (MIPE library, Control AUC minus VN-MCC AUC (therapeutic window), sheet S2E) of 2.118. In addition, the VN-MCC_Avg_AUC in [3] (MIPE library, sheet S2E) came out at 463.393. Moreover, the HEK293T_AUC came to 469.58 in [4] (setting [17]) and 469.58 in assay [4] (area under the dose-response curve, HEK293T control cells, AUC<450 = reduced viability). The compound further showed a Control-MCC in [5] (MIPE library, Control AUC minus MCC AUC (therapeutic window), sheet S2E) of 26.3592. This compound also registered an MCC_Avg_AUC in assay [6] (MIPE library, sheet S2E) of 439.151. The UISO_AUC in assay [7] (setting [16]) was determined as 453.203; in assay [7] (area under the dose-response curve, UISO cells, AUC<450 = reduced viability), 453.203. In addition, the NIH3T3_AUC in assay [8] (setting [17]) stood at 458.083; in [8] (area under the dose-response curve, NIH3T3 control cells, AUC<450 = reduced viability) it was 458.083. The Control_Avg_AUC in assay [9] (MIPE library, sheet S2E) is on record as 465.51. Further, the WAGA_AUC came out at 423.315 in assay [10] (setting [16]) and 423.315 in [10] (area under the dose-response curve, WAGA cells, AUC<450 = reduced viability). Further, the MKL1_AUC amounted to 418.758 in assay [11] (setting [16]) and 418.758 in assay [11] (area under the dose-response curve, MKL-1 cells, AUC<450 = reduced viability). The Control-VP-MCC in assay [12] (MIPE library, Control AUC minus VP-MCC AUC (therapeutic window), sheet S2E) turned out to be 50.6007. For the same compound, the VP-MCC_Avg_AUC in [12] (MIPE library, sheet S2E) came out at 414.91. The MCC26_AUC in assay [13] (setting [16]) is given as 479.481; in [13] (area under the dose-response curve, MCC26 cells, AUC<450 = reduced viability), 479.481. Further, the MKL2_AUC was 402.656 in assay [14] (setting [16]) and 402.656 in assay [14] (area under the dose-response curve, MKL-2 cells, AUC<450 = reduced viability). The CRL7250_AUC in assay [15] (setting [17]) was determined as 458.179; in assay [15] (area under the dose-response curve, CRL7250 control cells, AUC<450 = reduced viability), 458.179.

In the case of `CN(CC1(C)CCCO1)S(=O)(=O)c1ccc(Cl)c(S(N)(=O)=O)c1` (centres unmarked) [Mefruside], the MCC13_AUC in assay [1] (NPC library, qHTS dose-response AUC, MCC13) is listed as 487.176. This compound also gave an HACAT_AUC in assay [2] (NPC library, qHTS dose-response AUC, HACAT control) of 466.668. Further, the VN-MCC_Avg_AUC in assay [3] (NPC library) was 490.65. The compound further displayed a Control-VN-MCC in assay [3] (NPC library, therapeutic window: Control avg AUC minus VN-MCC avg AUC) of -22.9615. The same compound came in with an HEK293T_AUC in assay [4] (NPC library, qHTS dose-response AUC, HEK293T control) of 446.841. Moreover, in assay [5] (NPC library, therapeutic window: Control avg AUC minus MCC avg AUC), the Control-MCC is given as 16.8852. In assay [6] (NPC library), this compound had an MCC_Avg_AUC of 450.803. This compound also showed a UISO_AUC in assay [7] (NPC library, qHTS dose-response AUC, UISO) of 490.08. Moreover, the NIH3T3_AUC in assay [8] (NPC library, qHTS dose-response AUC, NIH3T3 control) was 485.692. The compound further returned a Control_Avg_AUC in assay [9] (NPC library) of 467.688. This compound displayed a WAGA_AUC in [10] (NPC library, qHTS dose-response AUC, WAGA) of 408.321. Moreover, the MKL1_AUC in assay [11] (NPC library, qHTS dose-response AUC, MKL1) is reported as 435.185. This compound also registered a VP-MCC_Avg_AUC in assay [12] (NPC library) of 410.957. Further, the Control-VP-MCC in assay [12] (NPC library, therapeutic window: Control avg AUC minus VP-MCC avg AUC) is reported as 56.732. Besides, the MCC26_AUC in [13] (NPC library, qHTS dose-response AUC, MCC26) is reported as 494.694. Further, in assay [14] (NPC library, qHTS dose-response AUC, MKL2), the MKL2_AUC is listed as 389.363. The same compound registered a CRL7250_AUC in assay [15] (NPC library, qHTS dose-response AUC, CRL7250 control) of 471.553.
